In patent US6538107B1, “G protein coupled receptor protein production, and use thereof” (Takeda Chemical Industries, Ltd., priority 1994, dated 2003):

Tested on: oocytes injected with H2O
Assay: Electrophysiological measurement in control Xenopus oocytes injected with H2O instead of pMAH2-17 cRNA
Type: cell-based
Details: ATP stimulation, initial membrane potential −60 mV

`Nc1ncnc2c1ncn2[C@@H]1O[C@H](COP(=O)(O)OP(=O)(O)OP(=O)(O)O)[C@@H](O)[C@H]1O` [ATP, Adenosine triphosphate] was tested, and the “inward currents (current changes of the membrane) evoked by ATP” value was “such a current was not observed”.
